For 1 compound, Km results are on record in PMC9674958 (Proceedings of the National Academy of Sciences of the …, 2022).

The test system of test [1] is tyrosinase (TYR) of Q. spinosa. Description: absorbance at […] nm, Lineweaver-Burk fit. It is filed as biochemical, Quasipaa spinosa. Particulars: 15 uM CuSO4, 50 mM Na2HPO4, pH 6.2; L-DOPA 0.625-10 mM.
Test [2] has as its system tyrosinase (TYR) of N. parkeri. Nature of the test: absorbance at […] nm, Lineweaver-Burk fit. It is filed as biochemical, Nanorana parkeri. The conditions noted are these: 15 uM CuSO4, 50 mM Na2HPO4, pH 6.2; L-DOPA 0.625-10 mM.

In the case of `N[C@@H](Cc1ccc(O)c(O)c1)C(=O)O` [L-DOPA], the Km in test [1] is 0.1663 ± 0.117 mM/L; in test [2] it was 0.130 ± 0.073 mM/L.
